The record followed here is PubChem BioAssay AID624144 (National Center for Advancing Translational Sciences (NCATS), 2012).

The data set has as its system human plasma stability, LC-MS/MS, 48 h. The data set is described as follows: qHTS Assay to Find Inhibitors of T. brucei phosphofructokinase: Human Plasma Stability Profiling. The following applies: at 2 µM; stronger effect = lower value.

The structures appear in SMILES notation.

For the compound `O=C(Cc1ccc(Cl)c(Cl)c1)Nc1ccc(S(=O)(=O)Nc2ccon2)cc1`, the percent remaining in plasma (higher = more stable) was 100%.
